From patent US10039741B2, “Use of delta tocopherol for the treatment of lysosomal storage disorders” (The United States of America, as represented by the …, priority 2010, dated 2018)

What was measured:
[1] = system: NPC mouse model; details: cited from earlier work
[2] = system: NPC cat model; details: cited from earlier work
[3] = system: NPCD fibroblasts; assay: Lysotracker staining assay (lysosome size); assay type: cell-based, human; details: NPCD fibroblasts
Protocol: Lysotracker is fluorescent dye that stains acidic compartments in live cells and is well-retained after aldehyde fixation. We have optimized a lysotracker staining assay to visualize the enlarged lysosome size in the NPC skin fibroblasts by applying appropriate concentration of lysotracker dye in comparison with these normal fibroblast cells. Cells were seeded at 8000 cells/well in 100 μl medium in a black/clear bottom, tissue culture treated plate and cultured overnight or in a dedicated time. The cells were live-stained with 100 u/well 50 nM Lysotracker Red-99 dye (Invitrogen) dissolved medium at 37° C. for 1 hr followed by two-times plate wash with PBS buffer using the plate-inverted centrifugation method. The plate was then added with 100 μl/well 3.2% formaldehyde and 1 μg/ml Hoechst 33342 (Invitrogen) in PBS and incubated at room temperature for 30 minutes. After three times of plate wash with PBS buffer, samples were stored at 4° C. until imaging. Samples were photographed using an IN Cell Analyzer 1000 (GE Healthcare) with a 20× objective equipped with CCD camera. DAPI filter and TRITC filter were used to visualize Hoechst and Lysotracker red, respectively. The images were processed by Adobe Photoshop.

[4] = system: NPC patient-derived skin fibroblasts; assay: Amplex red cholesterol assay (free cholesterol); assay type: cell-based, human; details: NPCD fibroblasts
Source text: Free cholesterol accumulation in cells is a hallmark of NPC disease. The Amplex red cholesterol assay was used to screen an approved drug library in the NPC patient-derived skin fibroblasts that have free cholesterol accumulation in late endosome and lysosome. […] We then show δ-tocopherol in the filipin cholesterol staining assay, a method used clinically for NPCD diagnosis. […] Lysosome size is usually enlarged in the NPCD cells using a lysotracker staining assay.
The free cholesterol level in these cells was then measured by a cholesterol oxidase coupled HRP/amplex red detection method with a commercial available kit (Invitrogen). The cells were seeded to black, tissue culture-treated 1536-well plates (Greiner Bio-One, Monroe, N.C.) at 800 cells/well in 5 μl medium by a Multidrop Combi dispenser (Thermo Scientific, Waltham, Mass.) and cultured for 24 hours. The assay plates were added with 23 nl/well of compound DMSO solution using a pintool station (Kalypsys, San Diego, Calif.) and cultured for 3 days. The 1536-well assay plate was washed by a plate-inverted centrifugation method that removing medium by centrifuging plates upside down against a stack of paper towel at 1000 rpm for 1 min followed by addition of 7 μl/well PBS buffer, repeating for two times. The PBS buffer was added with a 45 degree angled dispenser (Kalypsys) or a Multi-Drop Combi dispenser set at medium speed to reduce disturbance to the cells. After the cell wash, 2.5 μl/well of detection mixture from the kit was added followed by 1 hour incubation at 37° C. With the addition of the detection mixture, the cells were lysed by the detergent containing buffer and free cholesterols in cell lysate were oxidized by cholesterol oxidase to produce H2O2 which reacting with amplex red dye in the presence of horseradish peroxidase to yield red fluorescence signal. A ViewLux plate reader (PerkinElmer, Boston, Mass.) was used to measure the fluorescent signal in assay plates with the excitation of 573 nm and emissions of 610 nm.

[5] = human plasma, physiological level; cited from earlier work
[6] = system: Wolman disease cells; assay: Amplex-red cholesterol assay (total cholesterol), combination therapy; assay type: cell-based, human
Source text: (1) Amplex-red cholesterol assay. This biochemical assay (Invitrogen) uses cholesterol oxidase and a HRP-Amplex-re reporting system to measure the free cholesterol level in cells. With the addition of acid lipase to this assay, that hydrolyzes cholesterol ester to free cholesterol, the level of total cholesterol in cells including the cholesterol ester can be measured. This assay was used for detecting the total cholesterol level of in fibroblasts from patients with Wolman disease.

[7] = system: NPC fibroblasts; assay: Lipid measurement by mass spectrometry (GC/MS); assay type: cell-based, human; details: 80 μM α-tocopherol or 40 uM δ-tocopherol for 5 days
Protocol: (§1) Effects of δ-tocopherol and α-tocopherols on (FIG. 4A) free cholesterol, (FIG. 4B) cholesterol ester and (FIG. 4C) sphingomyelin in NPC cells. NPC or WT cells were treated with DMSO, 80 μM α-tocopherol or 40 uM δ-tocopherol for 5 days. Cell pellets were collected and extracted for lipids. FC EC and sphingomyelin levels were measured by GC/MS. (FIG. 4D) Effects of δ-tocopherols and α-tocopherols on cholesterol efflux.
(§2) Cell pellets were collected from 100-mm dishes and washed once with 10 ml PBS. Proteins were assayed using the BCA kit (Sigma-Aldrich) and lipids were extracted by modified Bligh and Dyer procedure (29) from the cells. Internal standards were added based on protein concentration that included N12:0 sphingomyelin, D7-cholesterol, 17:0 cholesterol ester (Avanti Polar Lipids, Inc). A portion of the lipid extract was used for detection of sphingomyelins using direct infusion mass spectrometric assay with lithium hydroxide for facilitating ionization and the rest was used to convert cholesterol and its ester into acetate by derivatization. The derivatization was performed by treating the dried crude lipid extract with solutions of 1 M acetic acid with 1 M DMAP in chloroform and 1 M EDC in chloroform at 50° C. for 2 hours. The derivatized product was extracted with hexane and analyzed by direct infusion mass spectrometric assay with 5% ammonium hydroxide for facilitating ionization.
(§3) A triple-quadrupole mass spectrometer equipped with an electrospray was used for analysis of lipids in positive mode. Sphingomyelins, cholesterol and cholesterol esters were detected by neutral loss scan of 213 (collision energy: 50 V), neutral loss scan of 77 (collision energy: 14 V) and precursor ion scan of m/z 369 (collision energy: 14 V) respectively. Data processing of mass spectrometric analyses including ion peak selection, data transferring, peak intensity comparison and quantitation was conducted using self-programmed Microsoft Excel macros (30).

[8] = system: wild type cells; assay: Lipid measurement by mass spectrometry (GC/MS); assay type: cell-based, human; details: wild type cells; 80 μM α-tocopherol or 40 uM δ-tocopherol for 5 days
Protocol: as §1, §2, §3

OC[C@H]1O[C@@H]2O[C@H]3[C@H](O)[C@@H](O)[C@@H](O[C@H]4[C@H](O)[C@@H](O)[C@@H](O[C@H]5[C@H](O)[C@@H](O)[C@@H](O[C@H]6[C@H](O)[C@@H](O)[C@@H](O[C@H]7[C@H](O)[C@@H](O)[C@@H](O[C@H]8[C@H](O)[C@@H](O)[C@@H](O[C@H]1[C@H](O)[C@H]2O)O[C@@H]8CO)O[C@@H]7CO)O[C@@H]6CO)O[C@@H]5CO)O[C@@H]4CO)O[C@@H]3CO [Beta-cyclodextrin]
cholesterol accumulation [1]: reduce cholesterol accumulation
life span [1]: increase in life span
cholesterol accumulation [2]: reduce cholesterol accumulation
life span [2]: increase in life span

CC(=O)N[C@@H](CS)C(=O)O [NAc, N-acetyl cysteine, reference compound]
enlarged lysosome size [3]: did not have any effect
cholesterol amount (cholesterol reduction) [4]: did not have any effect

O=C1O[C@H]([C@@H](O)CO)C(O)=C1O [vitamin C, reference compound]
enlarged lysosome size [3]: not active
cholesterol amount (cholesterol reduction) [4]: not active

Cc1c(C)c2c(c(C)c1O)CC[C@@](C)(CCC[C@H](C)CCC[C@H](C)CCCC(C)C)O2 [α-tocopherol, reference compound]
plasma concentration [5]: ~26 µM
cholesterol level, sole therapy ([6]; 40 μM delta-tocopherol or 80 μM alpha-tocopherol alone): cholesterol reduction effect
cholesterol level, combination ([6]; alpha-tocopherol 20 uM combined with 10 μM MBCD): cholesterol reduction effect
amount of cholesterol ester ([7]; NPCD cells): significantly reduced
sphingomyelin amount ([7]; NPCD cells): not significantly changed
free cholesterol level ([7]; NPCD fibroblasts): not statistically different
amount of cholesterol ester [8]: significantly reduced
sphingomyelin amount [8]: not significantly changed

Cc1c(O)cc2c(c1C)O[C@](C)(CCC[C@H](C)CCC[C@H](C)CCCC(C)C)CC2 [γ-tocopherol, reference compound]
EC50 ([4]; Homo sapiens, Skin fibroblast, read-out: EC50, reduction of cholesterol accumulation): 60 to 80 µM

methyl-beta-cyclodextrin [MBCD, reference compound]
cholesterol level ([6]; MBCD at 0.3 mM alone): time dependent reduction

vitamin D [reference compound]
enlarged lysosome size [3]: not active
cholesterol amount (cholesterol reduction) [4]: not active

vitamin K [reference compound]
enlarged lysosome size [3]: not active
cholesterol amount (cholesterol reduction) [4]: not active
